Data as given in PMC8344022, “Small-molecule inhibitor of AF9/ENL-DOT1L/AF4/AFF4 interactions suppresses malignant gene expression and tumor growth” (Theranostics, 2021).
Like-named read-outs stand apart in the source and are kept apart here.

Key:
AF9-AFF4 interaction = target: T1, AF9-AFF4 interaction (Homo sapiens, UniProt P42568); test: Alpha assay, AF9-AFF4 interaction; assay type: binding; conditions: read-out: IC50, inhibition of AF9-AFF4 interaction
T1 construct: cDNA for human AF9 AHD domain (475-568) and ENL AHD domain (489-559) was synthesized; made in house; host or cells: E. coli BL21(DE3)
T1 sequence (P42568 475-568): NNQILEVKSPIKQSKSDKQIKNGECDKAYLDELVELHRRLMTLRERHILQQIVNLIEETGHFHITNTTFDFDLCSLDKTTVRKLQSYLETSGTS
Experimental: (§1) ENL is also a major MLL fusion partner (~10%). The AHD domains of human ENL and AF9 share a high homology with 82% identity and 89% similarity (Figure S1A). […] Our attempts to develop an Alpha assay for ENL-DOT1L failed. […] Compound 1's activity against ENL-DOT1L was therefore not determined.
(§2) Alpha assays. Alpha assays were developed using Perkin-Elmer AlphaLisa anti-MBP kit, which contains streptavidin donor beads and anti-MBP acceptor beads. The assay was performed using a MBP-protein (5 nM), a biotinylated peptide (40 nM), and increasing concentrations of a compound in 25 µL buffer (PBS with 0.5 % BSA, pH 7.5) in 384-well plates according to the manufacturer's protocol and measured with a Tecan SPARK microplate reader. Data were imported into Prism (version 5.0), and IC50 values from 3 independent experiments with standard deviation were obtained by using a standard dose-response curve fitting.

LSD1 = LSD1 (Homo sapiens, UniProt O60341); test: LSD1 enzyme inhibition; assay type: biochemical; conditions: at 100 µM (Figure S3: 30 or 100 µM)
Experimental: Inhibition of DOT1L, LSD1 and p300 was performed using our previously reported methods, [37], [38].
LSD1, and p300 histone acetyltransferase at 30 or 100 µM, using our previous reported methods [Ref. 36, 37,
(1 picture or pasted object on this page, not shown here)

cancer cells = test: Antiproliferation assays, cancer cell panel; assay type: cell-based
Experimental: The differential antiproliferation activities of compound 1 is consistent with its ability to suppress DOT1L/H3K79 methylation and SEC regulated gene expression, which are critical to MLL-r leukemia and Myc-driven blood cancer, but largely dispensable to other solid tumor cells.
(§3) Antiproliferation assay. Proliferation inhibition assays for suspension blood cancer cells were performed using an XTT assay kit (Roche). Proliferation inhibition assays for solid tumor cell lines MCF-7, MDA-MB-231, Panc1, Panc28 were performed using an MTT assay (Sigma). The antiproliferation EC50 values were determined using Prism 5 and the reported results were the mean values of at least three independent experiments. The incubation time for compound 1 was 7 days and that for EPZ4777 was 14 days.

ENL-AFF4 interaction = target: T2, ENL-AFF4 interaction (Homo sapiens, UniProt Q03111); test: Alpha assay, ENL-AFF4 interaction; assay type: binding; conditions: read-out: IC50, inhibition of ENL-AFF4 interaction
T2 construct: ENL AHD domain (489-559) was synthesized (by Genscript) and inserted into the pMAL c5X expression plasmid; made in house; host or cells: E. coli BL21(DE3)
T2 sequence (Q03111 489-559): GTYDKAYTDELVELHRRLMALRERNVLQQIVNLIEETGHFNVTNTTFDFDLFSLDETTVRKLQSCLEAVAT
Experimental: as §1, §2

[1] = system: nuclear protein levels in MV4;11 cells; test: Western blot of nuclear proteins; assay type: cell-based
Experimental: Western blot. 3x10^6 cells/well were treated with increasing concentrations of a compound for 3 days and nuclear proteins extracted with the EpiQuik Nuclear Extraction Kit (Epigentek) according to the manufacturer's protocol. Equal amounts of proteins were separated on SDS-PAGE and transferred to PVDF membranes. The blots were probed with primary antibodies, followed by anti-rabbit or anti-mouse IgG (Thermo Scientific) secondary antibodies. The primary antibodies used in this research were MBP Mouse mAb (#2396, Cell signaling), DOT1L Rabbit mAb (#77087, Cell signaling), MLL-N Rabbit mAb (#14689, Cell signaling), ENL Rabbit mAb (#14893, Cell signaling), Di-Methyl-Histone H3K79 Rabbit mAb (#5427, Cell signaling), Mono-Methyl-Histone H3K79 Rabbit mAb (#9398, Cell signaling), Histone H3 Rabbit mAb (#4499, Cell signaling), AF4 Rabbit pAb (#NBP1-28705, Novusbio) and AFF4 Rabbit pAb (#ab103586, Abcam).

Molm-13 cells [2] = test: Flow cytometry for CD14 and CD11b (differentiation); assay type: cell-based, human; conditions: 5 μM for 5 days
Experimental: (§4) Compound 1 (5 μM for 5 days) induced significant differentiation, with more cell populations expressing CD14 and CD11b, two cell surface proteins for macrophages/monocytes (Figure 5B).
(§5) Flow cytometry. For Annexin V apoptosis assay, 10^5 cells/ml were incubated with increasing concentrations of a compound for 5 days. Apoptosis was determined using the FITC Annexin V Apoptosis Detection Kit I (BD Bioscience) using the manufacturer's protocol. For other FACS assays, cells were labeled with fluorochrome-conjugated monoclonal antibodies against human CD14 and CD11b (BD Biosciences) according to the manufacturer's recommendation. Cells were analyzed using a FACS Calibur (BD Biosciences/Applied Biosystems) and data were processed using the program Flowjo (version7.6.5).

Molm-13 cells [3] = test: Annexin V apoptosis assay (flow cytometry); assay type: cell-based
Experimental: as §4
as §5, with “For Annexin V apoptosis assay, 10^5 cells/ml were incubated with increasing concentrations of a compound for 5 days.” left out

Panc-28 cells = test: Antiproliferation assay (MTT); assay type: cell-based; conditions: 168 h, 7-day incubation, read-out: Cytotoxicity EC50
Experimental: as §3

Panc-1 cells = test: Antiproliferation assay (MTT); assay type: cell-based; conditions: Homo sapiens, 168 h, 7-day incubation, read-out: Cytotoxicity EC50
Experimental: as §3

MCF-7 cells = test: Antiproliferation assay (MTT); assay type: cell-based; conditions: Homo sapiens, MCF7, 168 h, 7-day incubation, read-out: Cytotoxicity EC50
Experimental: as §3

MDA-MB-231 cells = test: Antiproliferation assay (MTT); assay type: cell-based; conditions: Homo sapiens, 168 h, 7-day incubation, read-out: Cytotoxicity EC50
Experimental: as §3

## CC(C)(C)c1ccc(-n2cc(C(=O)NC3CCNCC3)nc2-c2ccccc2)cc1 [Compound 1]
AF9-AFF4 interaction
  IC50: 2.5 ± 0.1 µM
LSD1
  Inhibition of LSD1 enzyme activity: did not significantly inhibit
Cancer cells; 168 h, MLL-r leukemia (MV4;11, Molm-13, THP-1) and Myc-driven blood cancer cells, 7 days, read-out: EC50 against proliferation (range)
  EC50: 3 to 11 µM
Cancer cells; MCF-7, MDA-MB-231 and two pancreatic cancer cells
  Antiproliferative activity against solid tumor cells: reduced activity
Cancer cells; MLL-r leukemia cells Molm-13, MV4;11 and THP-1, read-out: EC50s against proliferation (range)
  EC50: 4.7 to 11 µM
Cancer cells; Myc-driven blood cancer cells HL60, Kasumi-1, Jurkat, RPMI8226, U266, read-out: EC50s against proliferation (range)
  EC50: 3.3 to 9.7 µM
ENL-AFF4 interaction
  IC50: 3.3 ± 0.3 µM
[1]; 10 μM
  Nuclear level of AFF4: did not cause significantly decreased AFF4
[1]; 3 days
  Nuclear protein levels of H3K79me1 and me2 and ENL: reduced the nuclear protein levels of H3K79me1 and me2 and ENL
Molm-13 cells [2]
  Differentiation: cells expressing CD14 and CD11b: significantly more cells expressing high levels of CD14 and CD11b
Molm-13 cells [3]; 5 µM, 5-day incubation
  Apoptosis: did not cause significant apoptosis
Molm-13 cells [3]; 10 µM, 5 days
  Apoptosis: 44.2%
Molm-13 cells [3]; 15 µM, 5 days
  Apoptosis: 73.6%
Molm-13 cells [3]; short-term 2- or 3-day incubation
  Apoptosis: < 5%
Panc-28 cells
  EC50: 23.8 ± 0.2 µM
Panc-1 cells
  EC50: 15.1 ± 0.2 µM
MCF-7 cells
  EC50: 19.8 ± 0.3 µM
MDA-MB-231 cells
  EC50: 13.5 ± 0.2 µM
